Source: patent US20230074885A1, “BORTEZOMIB-LOADED NANOPARTICLES” (The Johns Hopkins University, priority 2020, published 2023)

Key:
[1] = test system: patient derived xenograft (PDX) model established from a human primary HCC; assay: In vivo treatment of patient derived xenograft (PDX) mouse model of liver cancer; set-up: species or system NSG mice
Protocol: In vivo therapeutic effect of BTZ-loaded nanoparticles. The therapeutic effect of BTZ-loaded nanoparticles was assessed using patient derived xenograft (PDX) model. Briefly, fresh human tumor tissue was harvested from HCC patients, then cut in small pieces (3^3 mm^3) and implanted subcutaneously in the right flank of NSG mice. Once tumors grew, a similar process (harvesting tumors from mice, mincing and inserting in new mice) was implemented. Mice at the 5th passage of PDX were utilized in this experiment. After implantation subcutaneously, the tumor is allowed to grow to approximately 1,000 mm^3. Next, mice were randomized to blank nanoparticles and BTZ-loaded nanoparticles with an equivalence of 2.2 mg/kg BTZ. The tumor sizes of mice in different groups were measured through two weeks and were taken as the reflection of therapeutic effect of different formulations.

[2] = Dose escalation test on animal survival; format: in vivo, mice
Protocol: Dose escalation test on animal survival following local subcutaneous injection of the 1-month BTZ nanoparticle (BTZ NP) formulation in comparison with free BTZ injection via intratumor injection.
The recommended dose in patients is 1.3 mg/m^2. This dose is also the maximum tolerated dose in patients. […] One of the essential features of BTZ-NP is the ability to release active BTZ gradually. The ability of BTZ-NP to release BTZ slowly by subcutaneous injections was evaluated with increasing doses of BTZ-NP. As shown, a dose of 108 mg/m^2 could be injected without any death in rodents. This dose is approximately 80-fold higher than the dose of the free drug that is sufficient to kill rodents.

[3] = test system: primary patient-derived cancer organoid (PDO) cultures from patients with liver cancers; assay: FDA-approved cancer drugs tested across patient-derived cancer organoid (PDO) cultures; format: cell-based, human
Protocol: Thirty-seven primary patient-derived cancer organoid (PDO) cultures have been established from patients with liver cancers (including hepatocellular cancer and cholangiocarcinoma). Food and Drug Administration (FDA)-approved cancer drugs (irrespective of FDA indication) were tested across all 37 PDO cultures.

[4] = cited from earlier work

SMILES: CC(C)C[C@H](NC(=O)[C@H](Cc1ccccc1)NC(=O)c1cnccn1)B(O)O [free BTZ, bortezomib]
- animal death due to toxicity ([1]; high dose 0.8 mg/kg free BTZ): died 1 day after injection
- efficacy in PDX model of liver cancer ([1]; mouse, in vivo): effective
- cause of death ([2]; 1 mg/kg free BTZ, intra-tumor injection): liver failure
- Survival ([2]; 1 mg/kg free BTZ, single intra-tumor injection, 12.5 μg/dose, 1.5 mg/m^2): 0/5
- lethal dose in rodent model ([2]; intratumoral injection): 1.5 mg/m^2
- effectiveness across PDO lines ([3]; 37 PDO cultures, hepatocellular cancer and cholangiocarcinoma): highly effective across all tested PDO lines
- effectiveness compared with currently approved FDA drugs for unresectable liver cancers ([3]; across all 37 PDO lines): more effective than any of the currently approved FDA drugs
- recommended dose / maximum tolerated dose in patients [4]: 1.3 mg/m^2
